The values below come from US20240360087A1, “THERMODYNAMICALLY STABLE FORM OF SCO-101” (SCANDION ONCOLOGY A/S, priority 2021, published 2024).

What all share (format): physicochemical
Series [1] can be described thus: Dynamic vapour sorption (DVS), hygroscopicity. As to conditions: for mass gain at 90% relative humidity (DVS): 25° C.; for hygroscopicity (DVS), in words: RH up to 90%. The protocol:
Approximately 10-20 mg of sample was placed into a mesh vapour sorption balance pan and loaded into a DVS Intrinsic or Advantage dynamic vapour sorption balance by Surface Measurement Systems. The sample was subjected to a ramping profile from 40-90% relative humidity (RH) at 10% increments, maintaining the sample at each step until a stable weight had been achieved (dm/dt 0.004%, minimum step length 30 minutes, maximum step length 120 minutes) at 25° C. After completion of the sorption cycle, the sample was dried using the same procedure to 0% RH and then a second sorption cycle back to 40% RH. Two cycles were performed. The weight change during the sorption/desorption cycles were plotted, allowing for the hygroscopic nature of the sample to be determined. XRPD analysis was then carried out on any solid retained.

The nature of series [2]: Competitive slurry experiments (thermodynamic stability of solid forms). As to conditions: for thermodynamic stability of the solid form, in words: conclusion from competitive slurry experiments and thermal data; for Form/Pattern after slurrying for 3 days: 1:1 mixture with Form I, 40° C., XRPD. The protocol: The slurries were stirred at 40° C. for 3 days. After 3 days, the solids were filtered centrifugally and analysed by XRPD.

The nature of series [3]: Variable temperature XRPD (VT-XRPD) of solid form conversion. As to conditions: mixture of Form III and Form IV at 150° C.
A short description of series [4]: Storage at 40° C./75% RH in an open vial, XRPD. As to conditions: 3 days. The protocol: 200 mg SCO-101, Form III (Pattern 24) was placed at 40° C./75% RH in an open vial covered with tissue for 3 days.
Where [5] appears, read: saturated acetone:heptane (50:50% v/v).
Setting [6] is: saturated acetone:water (50:50% v/v).

“Also recorded” adds a separate entry of the source.

For `O=C(Nc1cc(C(F)(F)F)cc(C(F)(F)F)c1)Nc1ccc(Br)cc1-c1nnn[nH]1` [Form I, N-[4-Bromo-2-(1H-1,2,3,4-tetrazol-5-yl)phenyl]-N′-[3,5-bis(trifluoromethyl)phenyl]urea], the “mass gain at 90% relative humidity (DVS)” value in series [1] (90% RH) is “no increase in mass”. Moreover, the “hygroscopicity (DVS), in words” value in series [1] and in series [1] (listed as crystal form I) was “non-hygroscopic” throughout. In series [2], the “thermodynamic stability of the solid form, in words” value was “thermodynamically most stable polymorph; also recorded: thermodynamically stable polymorph”.
Take `O=C(Nc1cc(C(F)(F)F)cc(C(F)(F)F)c1)Nc1ccc(Br)cc1-c1nnn[nH]1` [Form II, N-[4-Bromo-2-(1H-1,2,3,4-tetrazol-5-yl)phenyl]-N′-[3,5-bis(trifluoromethyl)phenyl]urea]: the “water absorbed at 90% RH (DVS)” value in series [1] (90% RH) is “approx. 6 % (w/w)”. Besides, in series [1] (90% RH), the “mass gain at 90% relative humidity (DVS)” value is given as “approx 6%”. Further, the “weight gain when increasing RH from 70% to 80% (DVS)” value in series [1] (RH 70% to 80%, corresponds to monohydrate) came out at 3%. The “hygroscopicity (DVS), in words” value in series [1] is reported as “takes up water to form a hydrate; also recorded: hygroscopic”; in series [1] (listed as crystal form II), “hygroscopic”. Also, the “Form/Pattern after slurrying for 3 days” value in series [2] (setting [5]) and in series [2] (setting [6]) was “Form I” in each case. Also, the “thermodynamic stability of the solid form, in words” value in series [2] was “metastable form”.
As to `O=C(Nc1cc(C(F)(F)F)cc(C(F)(F)F)c1)Nc1ccc(Br)cc1-c1nnn[nH]1` [Form III, N-[4-Bromo-2-(1H-1,2,3,4-tetrazol-5-yl)phenyl]-N′-[3,5-bis(trifluoromethyl)phenyl]urea], in series [3], the “temperature of complete transformation into Form IV (VT-XRPD)” value was 155 °C. In addition, the “solid form after storage (XRPD)” value in series [4] was “Form IV, Pattern 29”.
In the case of `O=C(Nc1cc(C(F)(F)F)cc(C(F)(F)F)c1)Nc1ccc(Br)cc1-c1nnn[nH]1` [Pattern 5, N-[4-Bromo-2-(1H-1,2,3,4-tetrazol-5-yl)phenyl]-N′-[3,5-bis(trifluoromethyl)phenyl]urea], the “Form/Pattern after slurrying for 3 days” value in series [2] (setting [5]) and in series [2] (setting [6]) was “Form I” each time.
